{"source": "patent US11534423B2", "about": "“Methods and compositions for improving exercise endurance, performance, or tolerance” (Washington University, priority 2019, dated 2022)", "key": {"Wild-type mice": {"system": "Wild-type mice", "assay": "acute exercise test to exhaustion after intraperitoneal injection", "assay_type": "in vivo", "details": "PF-429242 or vehicle, N=3, FIG. 14", "experimental": "Exercise endurance: Mice will undergo a single bout of a graded exercise test to exhaustion using a 4-lane treadmill on a 0% incline, with an electric grid at the back of each treadmill. Three days before the endurance test, mice will have 3 days of acclimation at 10 m/min at 0% incline for 5 min. The test will involve a 5 min acclimation period on the treadmill (turned off), followed by: 5 m/min for 5 min; 10 m/min for 5 min; 15 m/min for 10 min; 25 m/min for 10 min; and finally, 30 m/min until exhaustion is reached. Exhaustion is defined as the inability of the mouse to resume running within 10 s after direct contact on the electric grid and inability to right itself when placed on its back.\nWild-type mice were treated with PF-429242 or vehicle via intraperitoneal injection, and subjected to an acute exercise test to exhaustion (N=3)."}, "S1P": {"biological_target": "T1, S1P (Mus musculus, UniProt Q9WTZ2)", "T1 construct": "from tissue; host or cells: mouse liver (in vivo, i.p. dosing; earlier mouse studies reported elsewhere)", "T1 sequence (Q9WTZ2 187-1052)": "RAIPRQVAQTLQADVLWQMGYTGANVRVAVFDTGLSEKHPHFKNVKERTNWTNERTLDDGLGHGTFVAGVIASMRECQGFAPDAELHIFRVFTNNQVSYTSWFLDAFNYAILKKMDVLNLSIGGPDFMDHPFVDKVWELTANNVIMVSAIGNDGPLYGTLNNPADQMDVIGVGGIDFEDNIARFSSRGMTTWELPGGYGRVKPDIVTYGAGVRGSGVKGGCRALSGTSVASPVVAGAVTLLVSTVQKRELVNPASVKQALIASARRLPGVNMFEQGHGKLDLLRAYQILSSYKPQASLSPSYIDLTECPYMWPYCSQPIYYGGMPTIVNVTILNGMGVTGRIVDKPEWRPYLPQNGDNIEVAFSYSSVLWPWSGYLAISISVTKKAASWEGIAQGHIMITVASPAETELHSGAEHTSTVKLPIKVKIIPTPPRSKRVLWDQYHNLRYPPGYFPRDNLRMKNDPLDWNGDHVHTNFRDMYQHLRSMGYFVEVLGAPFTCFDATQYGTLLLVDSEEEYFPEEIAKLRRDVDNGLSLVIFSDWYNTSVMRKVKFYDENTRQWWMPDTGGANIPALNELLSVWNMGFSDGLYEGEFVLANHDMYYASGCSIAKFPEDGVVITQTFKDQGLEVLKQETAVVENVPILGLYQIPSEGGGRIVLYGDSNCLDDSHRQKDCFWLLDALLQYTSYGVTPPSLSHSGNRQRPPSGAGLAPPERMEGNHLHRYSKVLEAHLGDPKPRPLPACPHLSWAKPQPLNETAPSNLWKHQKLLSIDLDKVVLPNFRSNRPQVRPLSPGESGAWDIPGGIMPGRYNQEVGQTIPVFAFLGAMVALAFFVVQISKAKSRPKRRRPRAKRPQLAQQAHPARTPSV", "details": "30 mg/kg i.p. injection every 6 hrs for 24 hr; cited from earlier work"}}, "data": [{"smiles": "CCN(CC)Cc1ccc(C(=O)N(CCc2ccccc2OC)[C@@H]2CCNC2)cc1", "note": "[PF-429242]", "values": [{"measurement": "exercise tolerance", "setting": "Wild-type mice", "value": "enhanced exercise tolerance"}, {"measurement": "S1P inhibition in mouse liver", "setting": "S1P", "value": "effectively inhibits S1P"}]}]}
